{"source": "paper PMC11201590", "about": "“Enhancing Selective Antimicrobial and Antibiofilm Activities of Melittin through 6-Aminohexanoic Acid Substitution” (Biomolecules, 2024)", "key": {"MRSA": {"test_system": "MRSA", "type": "cell-based, Staphylococcus aureus", "method": "(§1) We assessed the antibiofilm activity of the peptides by determining their minimum biofilm eradication concentration (MBEC) and minimum biofilm inhibition concentration (MBIC) against drug-resistant bacteria, including MDRPA and MRSA, as previously described. A 96-well plate containing a subculture of 1 × 10^6 CFU/200 μL of bacteria was incubated overnight at 37 °C with or without peptides to test for biofilm inhibition and eradication. The untreated culture served as the negative control, and LL-37 was used as the control peptide."}, "MDRPA": {"test_system": "MDRPA", "type": "cell-based, Pseudomonas aeruginosa", "method": "as §1"}, "[1]": {"test_system": "S. epidermidis (KCTC 1917)", "type": "cell-based, Staphylococcus epidermidis", "conditions": "CLSI broth dilution, MHB, 37 °C, 18 to 24 h", "method": "(§2) Peptides were assessed for their antibacterial activity against four Gram-positive and four Gram-negative bacteria, including drug-resistant strains, in accordance with Clinical and Laboratory Standards Institute (CLSI) guidelines. The minimum inhibitory concentration (MIC) was determined using a microtiter broth dilution method. All bacterial strains were incubated overnight at 37 °C. Cultured bacteria were then diluted 10-fold in Muller–Hinton Broth (MHB) medium (Difco, Detroit, MI, USA) and incubated for 3 h to reach mid-log phase. Following the establishment of mid-log phase cultures, bacteria were inoculated into sterile 96-well plates containing serially diluted peptides. The MIC was defined as the lowest concentration of peptides that prevented observable turbidity after incubation of the plates at 37 °C for 18 to 24 h."}, "[2]": {"test_system": "RAW 264.7 macrophage cells", "assay": "Cytotoxicity, MTT assay", "type": "cell-based, mouse", "conditions": "4 µM peptide, RAW 264.7, 48 h, triplicate", "method": "We conducted the MTT assay (3-(4,5-dimethylthiazol-2-yl)-2,5-diphenyltetrazolium bromide) dye reduction experiment against RAW 264.7 macrophage cells to evaluate the cytotoxicity of the peptides, following previously published methods. RAW 264.7 cells were cultured for 24 h in the presence of 5% CO2 at 37 °C after seeding them in 96-well plates (2 × 10^4 cells/well). Subsequently, the peptides were treated at increasing concentrations and allowed to interact with the cells for 48 h. Following the incubation period, 20 μL of MTT solution (5 mg/mL in PBS) was added to each well, and the plate was further incubated at 37 °C for 4 h. The absorbance was then measured at 550 nm using a microplate ELISA reader after dissolving the formazan crystals in dimethyl sulfoxide (DMSO). Treatment with 0.1% Triton X-100 served as a positive control for 100% cytotoxicity. Each experiment was performed in triplicate."}, "[3]": {"test_system": "four Gram-positive and four Gram-negative bacteria", "type": "cell-based", "conditions": "over the eight strains of Table 2", "method": "as §2"}, "S. aureus": {"test_system": "S. aureus", "assay": "SYTOX green uptake assay", "type": "cell-based, Staphylococcus aureus", "conditions": "negative control", "method": "The SYTOX green experiment was utilized to assess the impact of peptides on bacterial membrane permeabilization. S. aureus cells in the mid-log phase (OD600 = 0.5) were washed three times in a buffer containing 20 mM glucose and 5 mM HEPES (pH 7.4). Subsequently, the bacterial cell suspensions were diluted in a buffer consisting of 5 mM HEPES, 100 mM KCl, and 20 mM glucose, at pH 7.4, to a concentration of 1 × 10^6 CFU/mL. After incubating for fifteen minutes in complete darkness, 0.5 μM SYTOX green was added to the bacterial suspensions. The Shimadzu fluorescence spectrophotometer RF-5300PC (Shimadzu Scientific Instruments, Kyoto, Japan) was employed to monitor SYTOX green fluorescence following the addition of peptides at a concentration of 2 × MIC. In the Shimadzu fluorescence spectrophotometer, the excitation and emission wavelengths were set at 485 nm and 520 nm, respectively."}, "E. coli (KCTC 1682)": {"test_system": "E. coli (KCTC 1682)", "assay": "Outer membrane permeability (NPN uptake)", "type": "cell-based, Escherichia coli", "conditions": "varying peptide concentrations; NPN fluorescence", "method": "The fluorescent probe NPN (1-N-phenylnaphthylamine) was utilized to measure the outer membrane permeability of Gram-negative E. coli. Mid-log phase E. coli cells were diluted to an OD600 of 0.05 after being washed three times in a buffer containing 5 mM HEPES, 20 mM glucose, and 5 mM KCN at pH 7.4. A 1 mM stock solution of NPN was prepared by dissolving NPN in acetone. To achieve a final concentration of 10 µM, 30 μL of the stock solution was added to the bacterial suspension. […] Fluorescence was then measured over time after the peptides were added, with the concentration increasing until it reached a steady state. ONPG (o-nitrophenyl-β-[…]), a […] substrate used for cytoplasmic membrane β-galactosidase enzyme, was employed to assess the release of β-galactosidase from E. coli ML-35, aiming to determine the inner membrane permeability of peptides. A 1.5 mM solution of ONPG was added to a sample buffer consisting of 10 mM sodium phosphate and 100 mM NaCl at pH 7.4, which was used to suspend mid-log phase E. coli ML-35 bacteria to an OD600 of 0.5. […] The fluorescence of ONPG increases when it is hydrolyzed to form o-nitrophenol. The permeability of the inner membrane of E. coli ML-35 bacteria was assessed by the influx of ONPG, a substance that was then broken down into o-nitrophenol, forming a yellow product, by the presence of β-galactosidase in the cytoplasm."}, "[4]": {"conditions": "8 to 16 µM, sentence does not tell MRSA and MDRPA apart"}}, "note": "Read-outs that look alike come from different tables or passages of the source."}
{"molecule": "CC[C@H](C)[C@H](NC(=O)[C@H](CCCCN)NC(=O)[C@H](CCC(=O)O)NC(=O)[C@H](CCCCN)NC(=O)[C@H](CO)NC(=O)[C@H](CCCCN)NC(=O)[C@H](CCCNC(=N)N)NC(=O)[C@H](Cc1ccccc1)NC(=O)[C@H](Cc1ccccc1)NC(=O)[C@H](CC(=O)O)NC(=O)CNC(=O)[C@H](CC(C)C)NC(=O)[C@@H](N)CC(C)C)C(=O)NCC(=O)N[C@@H](CCCCN)C(=O)N[C@@H](CCC(=O)O)C(=O)N[C@@H](Cc1ccccc1)C(=O)N[C@@H](CCCCN)C(=O)N[C@@H](CCCNC(=N)N)C(=O)N[C@H](C(=O)N[C@H](C(=O)N[C@@H](CCC(N)=O)C(=O)N[C@@H](CCCNC(=N)N)C(=O)N[C@H](C(=O)N[C@@H](CCCCN)C(=O)N[C@@H](CC(=O)O)C(=O)N[C@@H](Cc1ccccc1)C(=O)N[C@@H](CC(C)C)C(=O)N[C@@H](CCCNC(=N)N)C(=O)N[C@@H](CC(N)=O)C(=O)N[C@@H](CC(C)C)C(=O)N[C@H](C(=O)N1CCC[C@H]1C(=O)N[C@@H](CCCNC(=N)N)C(=O)N[C@H](C(=O)N[C@@H](CCC(=O)O)C(=O)N[C@@H](CO)C(=O)O)[C@@H](C)O)C(C)C)[C@@H](C)CC)C(C)C)[C@@H](C)CC", "note": "[LL-37]", "values": [{"measurement": "inhibition of biofilm formation", "setting": "MRSA; [4]", "result": "approximately 50%"}, {"measurement": "inhibition of biofilm formation", "setting": "MDRPA; [4]", "result": "approximately 50%"}]}
{"molecule": "CC[C@H](C)[C@H](NC(=O)CN)C(=O)NCC(=O)N[C@@H](C)C(=O)N[C@H](C(=O)N[C@@H](CC(C)C)C(=O)N[C@@H](CCCCN)C(=O)N[C@H](C(=O)N[C@@H](CC(C)C)C(=O)N[C@H](C(=O)N[C@H](C(=O)NCC(=O)N[C@@H](CC(C)C)C(=O)N1CCC[C@H]1C(=O)N[C@@H](C)C(=O)N[C@@H](CC(C)C)C(=O)N[C@H](C(=O)N[C@@H](CO)C(=O)N[C@@H](Cc1c[nH]c2ccccc12)C(=O)N[C@H](C(=O)N[C@@H](CCCCN)C(=O)N[C@@H](CCCNC(=N)N)C(=O)N[C@@H](CCCCN)C(=O)N[C@@H](CCCNC(=N)N)C(=O)N[C@@H](CCC(N)=O)C(=O)N[C@@H](CCC(N)=O)C(N)=O)[C@@H](C)CC)[C@@H](C)CC)[C@@H](C)O)[C@@H](C)O)C(C)C)C(C)C", "note": "[Melittin]", "values": [{"measurement": "inhibition of biofilm formation", "setting": "MRSA; MRSA, 4 µM peptide", "result": "~90", "unit": "%"}, {"measurement": "MIC", "setting": "[1]", "result": 8, "unit": "µM"}, {"measurement": "cell survival rate", "setting": "[2]", "result": "less than 10%"}, {"measurement": "inhibition of biofilm formation", "setting": "MDRPA; MDRPA, 8 µM peptide", "result": "~90", "unit": "%"}, {"measurement": "GM, geometric mean of the MIC", "setting": "[3]", "result": 10.5, "unit": "µM"}]}
{"molecule": "Buforin-2", "values": [{"measurement": "effect on SYTOX green fluorescence intensity", "setting": "S. aureus", "result": "did not affect fluorescence intensity"}, {"measurement": "outer membrane permeability", "setting": "E. coli (KCTC 1682)", "result": "No appreciable outer membrane permeability"}]}
